One assay concerns the target CDK9/CyclinT1 (Homo sapiens (Human), UniProt P50750). Put plainly: CDK9/CycT1 high ATP kinase assay (TR-FRET). The assay is classed as biochemical. The conditions noted are these: 2 mM ATP (high ATP); median; read-out: CDK9/CyclinT1, 2 mM ATP (high ATP), IC50 - [mol/l] (median). As for the experimental part: CDK9/CycT1-inhibitory activity of compounds of the present invention at a high ATP concentration after preincubation of enzyme and test compounds was quantified employing the CDK9/CycT1 TR-FRET assay as described in the following paragraphs.
Recombinant full-length His-tagged human CDK9 and CycT1, expressed in insect cells and purified by Ni-NTA affinity chromatography, were purchased from Life Technologies (Cat. No PV4131). As substrate for the kinase reaction biotinylated peptide biotin-Ttds-YISPLKSPYKISEG (C-terminus in amide form) was used which can be purchased e.g. form the company JERINI peptide technologies (Berlin, Germany).
For the assay 50 nanoL of a 100 fold concentrated solution of the test compound in DMSO was pipetted into either a black low volume 384 well microtiter plate or a black 1536 well microtiter plate (both Greiner Bio-One, Frickenhausen, Germany), 2 microL of a solution of CDK9/CycT1 in aqueous assay buffer [50 millimol/L Tris/HCl PH 8.0, 10 millimol/L MgCl2, 1.0 millimol/L dithiothreitol, 0.1 millimol/L sodium ortho-vanadate, 0.01% (v/v) Nonidet-P40 (Sigma)] were added and the mixture was incubated for 15 min at 22° C. to allow pre-binding of the test compounds to the enzyme before the start of the kinase reaction. Then the kinase reaction was started by the addition of 3 microL of a solution of adenosine-tri-phosphate (ATP, 3.3 millimol/L=>final conc. in the 5 microL assay volume is 2 millimol/L) and substrate (1.25 micromol/L=>final conc. in the 5 microL assay volume is 0.75 micromol/L) in assay buffer and the resulting mixture was incubated for a reaction time of 25 min at 22° C. The concentration of CDK9/CycT1 was adjusted depending of the activity of the enzyme lot and was chosen appropriate to have the assay in the linear range, typical concentrations were in the range of 0.5 microg/ml. The reaction was stopped by the addition of 3 microL of a solution of TR-FRET detection reagents (0.33 micromol/L streptavidine-XL665 [Cisbio Bioassays, Codolet, France] and 1.67 nanomol/L anti-RB (pSer807/pSer811)-antibody from BD Pharmingen [#558389] and 2 nanomol/L LANCE EU-W1024 labeled anti-mouse IgG antibody [Perkin-Elmer, product no. AD0077]) in an aqueous EDTA-solution (167 millimol/L EDTA, 0.2% (w/v) bovine serum albumin in 100 millimol/L HEPES pH 7.5).
The resulting mixture was incubated 1 h at 22° C. to allow the formation of complex between the phosphorylated biotinylated peptide and the detection reagents. Subsequently the amount of phosphorylated substrate was evaluated by measurement of the resonance energy transfer from the Eu-chelate to the streptavidine-XL. Therefore, the fluorescence emissions at 620 nm and 665 nm after excitation at 350 nm was measured in a TR-FRET reader, e.g. a Pherastar (BMG Labtechnologies, Offenburg, Germany) or a Viewlux (Perkin-Elmer). The ratio of the emissions at 665 nm and at […] was taken as the measure for the amount of phosphorylated substrate. The data were normalised (enzyme reaction without inhibitor=0% inhibition, all other assay components but no enzyme=100% inhibition).
For orientation: In TR-FRET formats the signal depends on donor and acceptor labels being close together.

For assay [1], the system named is BRCA1 mRNA expression in MDA-MB-231 cells. Put plainly: qRT-PCR assay: inhibition of BRCA1 mRNA expression in MDA-MB-231 cells. It is filed as cell-based. The conditions noted are these: Homo sapiens, 24 h exposure, BRCA1 normalised to GAPDH, median, read-out: RTqPCR-MDA-MB-231, IC50 [mol/l], BRCA1 (median). As for the experimental part:
3. qRT-PCR Assay: BRCA1, ATR, MCL1 in MDA-MB-231, CAL-120
Tissue cultured human MDA-MB-231 human breast cancer cells were plated in 500 microL per well at 200,000 cells/well in a 24 well microtiter plate. After 24 h, the cells were exposed continuously for 24 h to test substances (substances were added with Tecan HP D300 Dispenser). RNA was prepared using Qiagen RNeasy MiniKit (#74106), RNA was quantified using a NanoDrop Equipment, and 600 nano grams of RNA was converted to cDNA using a SuperScript VILO kit (Thermofisher #11755050) followed by qPCR amplification. BRCA1 and ATR gene expression was measured by RT-qPCR and normalised to GAPDH housekeeping gene expression. qPCR primer sets have been purchased from Thermo Fisher Scientific/Applied Biosystems: BRCA1, #Hs 01556193; ATR. #Hs 00992123: GAPDH. #Hs 03929097.
Background: Quantitative PCR measures a nucleic acid by following its amplification.

Assay [2] concerns CAL-120, human breast adenocarcinoma cells. As to the kind of experiment: Proliferation assay CAL-120 (crystal violet). The assay is classed as cell-based. The conditions noted are these: 96 h, CAL-120 parental cells, 4 days, median, read-out: Prolif-CAL-120, IC50 - [mol/l] (median). As to the method: Human tumour cells were originally obtained from the American Type Culture Collection (ATCC), or from the Deutsche Sammlung von Mikroorganismen und Zellkulturen (DSMZ, German Collection of Microorganisms and Cell Cultures). Cultivated tumour cells (CAL-120, human breast adenocarcinoma cells, DSMZ ACC-459; MDA-MB-231, human breast cancer cells, ATCC HTB-26) were plated at a density of 4,000 cells/well in a 96-well multitier plate in 200 microL of their respective growth medium supplemented 10% fetal calf serum. After 24 hours, the cells of one plate (zero-point plate) were stained with crystal violet (see below), while the medium of the other plates was supplemented with the test substances in various concentrations (0 micromol/L, as well as in the range of 0.01-10 micromol/L; the final concentration of the solvent dimethyl sulfoxide was adjusted to 0.1%) using a Tecan HP D300 Digital Dispenser. The cells were incubated for 4 days in the presence of test substances. Cell proliferation was determined by staining the cells with crystal violet: the cells were fixed by adding 20 microL/measuring point of an 11% glutaric aldehyde solution for 15 minutes at room temperature. After three washing cycles of the fixed cells with water, the plates were dried at room temperature. The cells were stained by adding 100 microL/measuring point of a 0.1% crystal violet solution (pH 3.0). After three washing cycles of the stained cells with water, the plates were dried at room temperature. The dye was dissolved by adding 100 microL/measuring point of a 10% acetic acid solution. The extinction was determined by photometry at a wavelength of 595 nm. The change of cell number, in percent, was calculated by normalization of the measured values to the extinction values of the zero-point plate (=0%) and the extinction of the untreated (0 μM) cells (=100%). The IC50 values (inhibitory concentration at 50% of maximal effect) were determined by means of a 4 parameter fit.

Some results are limits rather than exact numbers.

Sequence of CDK9/CyclinT1 (P50750 whole entry): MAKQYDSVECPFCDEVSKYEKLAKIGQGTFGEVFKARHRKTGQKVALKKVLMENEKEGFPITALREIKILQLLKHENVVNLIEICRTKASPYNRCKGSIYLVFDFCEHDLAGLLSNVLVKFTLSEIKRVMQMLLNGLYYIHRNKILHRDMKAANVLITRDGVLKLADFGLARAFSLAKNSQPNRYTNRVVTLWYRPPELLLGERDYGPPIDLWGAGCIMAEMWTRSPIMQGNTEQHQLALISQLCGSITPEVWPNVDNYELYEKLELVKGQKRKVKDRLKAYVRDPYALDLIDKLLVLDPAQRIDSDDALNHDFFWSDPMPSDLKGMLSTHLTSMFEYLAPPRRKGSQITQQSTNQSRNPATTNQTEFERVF
Sequence of CDK9/CyclinT1 (O60563 whole entry partner): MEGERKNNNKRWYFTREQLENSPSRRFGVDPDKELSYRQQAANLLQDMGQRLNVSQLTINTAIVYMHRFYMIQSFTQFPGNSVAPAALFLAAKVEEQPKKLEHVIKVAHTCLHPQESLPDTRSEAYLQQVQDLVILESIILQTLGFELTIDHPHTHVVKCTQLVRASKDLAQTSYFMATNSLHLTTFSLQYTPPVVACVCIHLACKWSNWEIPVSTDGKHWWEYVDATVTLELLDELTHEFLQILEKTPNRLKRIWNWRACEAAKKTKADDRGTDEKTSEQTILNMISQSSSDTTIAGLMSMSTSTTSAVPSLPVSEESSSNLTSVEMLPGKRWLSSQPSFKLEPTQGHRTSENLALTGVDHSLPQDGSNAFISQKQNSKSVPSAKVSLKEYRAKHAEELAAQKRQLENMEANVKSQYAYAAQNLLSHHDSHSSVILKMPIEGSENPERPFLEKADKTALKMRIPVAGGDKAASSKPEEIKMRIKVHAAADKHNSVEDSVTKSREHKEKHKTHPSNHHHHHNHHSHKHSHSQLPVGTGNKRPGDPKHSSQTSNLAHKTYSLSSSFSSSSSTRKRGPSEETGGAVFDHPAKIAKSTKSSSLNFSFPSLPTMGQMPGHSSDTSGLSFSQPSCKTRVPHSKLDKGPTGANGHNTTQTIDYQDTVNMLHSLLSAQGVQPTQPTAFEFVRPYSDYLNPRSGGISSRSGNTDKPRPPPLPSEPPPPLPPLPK

With `FC(F)(F)Oc1ccc(-c2nnc(CNc3nc(N4CCOCC4)nc4c(C(F)(F)F)cnn34)[nH]2)cc1` [Example 5, 2-(morpholin-4-yl)-N-({5-[4-(trifluoromethoxy)phenyl]-4H-1,2,4-triazol-3-yl}methyl)-8-(trifluoromethyl)pyrazolo[1,5-a][1,3,5]triazin-4-amine], the IC50 worked out at 17800 nM on CDK9/CyclinT1, 109 nM in assay [1] and 319 nM in assay [2].

As for `Cc1ccc(-c2nnc(CNc3nc(N4CCOCC4)nn4c(C(F)(F)F)cnc34)[nH]2)cn1` [Example 23, N-{[5-(6-methylpyridin-3-yl)-4H-1,2,4-triazol-3-yl]methyl}-2-(morpholin-4-yl)-7-(trifluoromethyl)imidazo[2,1-f][1,2,4]triazin-4-amine], the IC50 at CDK9/CyclinT1 came to 624 nM; in assay [1] it was 102 nM; in assay [2], 99.3 nM.

Turning to `FC(F)(F)Oc1ccc(-c2cnc(CNc3nc(N4CCOCC4)nc4c(C(F)(F)F)cnn34)[nH]2)cc1` [Example 10, 2-(morpholin-4-yl)-N-({5-[4-(trifluoromethoxy)phenyl]-1H-imidazol-2-yl}methyl)-8-(trifluoromethyl)pyrazolo[1,5-a][1,3,5]triazin-4-amine], the IC50 at CDK9/CyclinT1 is > 20000 nM; in assay [1] it was 37.3 nM; in assay [2], 69.8 nM.

On to `FC(F)(F)Oc1ccc(-c2cnc(CNc3nc(N4CCOCC4)nn4c(C(F)(F)F)cnc34)[nH]2)cc1` [Example 8, 2-(morpholin-4-yl)-N-({5-[4-(trifluoromethoxy)phenyl]-1H-imidazol-2-yl}methyl)-7-(trifluoromethyl)imidazo[2,1-f][1,2,4]triazin-4-amine], for which the results for the IC50 (on CDK9/CyclinT1; in assay [1]; in assay [2]) were > 20000 nM, 38.2 nM and 90.7 nM, respectively.

As to `FC(F)(F)c1ccc(-c2cnc(CNc3nc(N4CCOCC4)nn4c(C(F)(F)F)cnc34)[nH]2)cn1` [Example 12, 2-(morpholin-4-yl)-7-(trifluoromethyl)-N-({5-[6-(trifluoromethyl)pyridin-3-yl]-1H-imidazol-2-yl}methyl)imidazo[2,1-f][1,2,4]triazin-4-amine], the IC50 at CDK9/CyclinT1 is > 20000 nM; in assay [1], 7.57 nM; in assay [2] it was 14.8 nM.

For the molecule `FC(F)(F)Oc1ccc(-c2nnc(CNc3nc(N4CCOCC4)nn4c(C(F)(F)F)cnc34)[nH]2)cn1` [Example 19, 2-(morpholin-4-yl)-N-({5-[6-(trifluoromethoxy)pyridin-3-yl]-4H-1,2,4-triazol-3-yl}methyl)-7-(trifluoromethyl)imidazo[2,1-f][1,2,4]triazin-4-amine], the figures for the IC50 (at CDK9/CyclinT1; in assay [1]; in assay [2]) were 506 nM, 34.5 nM and 63.2 nM, respectively.

For `FC(F)(F)Oc1ccc(-c2nnc(CNc3nc(N4CCOCC4)nc4c(Br)cnn34)[nH]2)cc1` [Example 2, 8-bromo-2-(morpholin-4-yl)-N-({5-[4-(trifluoromethoxy)phenyl]-4H-1,2,4-triazol-3-yl}methyl)pyrazolo[1,5-a][1,3,5]triazin-4-amine], the IC50 on CDK9/CyclinT1 came to 6350 nM; in assay [1] it was 272 nM; in assay [2], 370 nM.

(Values after patent US20250066370A1, “BICYCLIC TRIAZINE DERIVATIVES FOR THE TREATMENT OF CANCER” (DEUTSCHES KREBSFORSCHUNGSZENTRUM, priority 2022, published 2025).)
